Experimental data: patent publication US20250109165A1, “CYCLOPHILIN INHIBITORS AND USES THEREOF” (The Broad Institute, Inc., priority 2022, published 2025)
“And” between values parts separate entries of the source, which are not always exact repeats. Identical values can stand only once.

What was measured:
CypE [1] = target: T1, CypE (Homo sapiens, UniProt Q9UNP9); experiment: Assessment of covalent modification by mass spectrometry; conditions: after treatment with NaCNBH3
T1 construct: PPIE (UniProtKB Entry Q9UNP9: res 131-301); host or cells: E. coli BL21(DE3)
T1 sequence (Q9UNP9 131-301): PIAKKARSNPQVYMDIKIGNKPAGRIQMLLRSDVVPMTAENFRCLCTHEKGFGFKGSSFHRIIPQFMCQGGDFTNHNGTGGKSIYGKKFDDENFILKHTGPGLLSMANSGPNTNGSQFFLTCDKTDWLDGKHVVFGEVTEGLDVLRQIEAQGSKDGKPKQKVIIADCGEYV
Description: Assessment of covalent modification of CypE and other cyclophilin proteins: Into PCR strip, CypE or other cyclophilin in assay buffer (25 mM HEPES pH 8.0, 100 mM NaCl, 0.01% Triton X-100) was incubated with compound for 1 hour at room temperature. Final concentrations were 20 μM CypE, 100 μM compound, 0.5% DMSO, at a final volume of 20 μL. For analysis of lysine-iminoboronate modification, samples were directly submitted to Harvard's Center for Mass Spectroscopy for LC-MS analysis. For amine-lysine modification, samples were treated with 5 μL of 125 mM sodium cyanoborohydride dissolved in 25 mM Ammonium bicarbonate solution (pH 8.0) and incubated for 4 hours at room temperature. For all other wild-type cyclophilins, protein was treated for 4 hours with C3A, followed by 16 hour treatment with NaCNBH3. Final [NaCNBH3]=25 mM. Samples were then submitted for LC-MS as described above.

CypE [2] = target: T1, CypE; experiment: Chymotrypsin coupled prolyl-isomerase assay; format: biochemical
Description: (§1) IC50 values were calculated to be the value at which 50% inhibition was achieved on each compound's non-linear regression fitted curve.

CypE K217A [3] = target: T2, CypE K217A (Homo sapiens, UniProt Q9UNP9, K217A); experiment: Chymotrypsin coupled prolyl-isomerase assay; format: biochemical
T2 construct: Lane 5-GS-CypE K217A (131-301); His6 tag (N, cleaved yes); made in house; host or cells: E. coli BL21(DE3)
T2 sequence (Q9UNP9 131-301 K217A): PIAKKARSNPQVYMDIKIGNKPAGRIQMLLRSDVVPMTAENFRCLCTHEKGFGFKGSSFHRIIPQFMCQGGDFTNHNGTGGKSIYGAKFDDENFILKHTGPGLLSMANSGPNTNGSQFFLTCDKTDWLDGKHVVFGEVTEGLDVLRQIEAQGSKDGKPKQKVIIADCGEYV
Description: as §1

CypE [4] = target: T1, CypE; experiment: Competition anisotropy (fluorescence polarization) binding assay with A26-Fl
Description: (§2) Competition anisotropy binding assay with A26-Fl: Adapted from previous work^54, into a flat-bottom black untreated 96 well plate (Corning), cyclophilin in assay buffer (25 mM HEPES pH 8.0, 100 mM NaCl, 0.01% Triton X-100) at a predetermined concentration from FIG. 27 was incubated with 0.5 nM A26-Fl for 10 minutes at room temperature. Competitor macrocycle was then added to each well and incubated for 24 hours. Final assay volume was 100 μL with 0.25% DMSO. Fluorescence anisotropy was then measured using a Tecan Spark® plate reader using 492 nm/523 nm excitation/emission settings. Raw fluorescence polarization data was normalized to protein+fluorescent probe and buffer+fluorescent probe and Ki values were calculated using one site-competitive binding equation with Prism 9, importing Kd values from A26-Fl (FIGS. 12A-12C).

CypE K217A [5] = target: T2, CypE K217A; experiment: as above
Description: as §2

CypD R124A = target: T3, CypD R124A (Homo sapiens, UniProt P30405, R124A); experiment: Chymotrypsin coupled prolyl-isomerase assay; format: biochemical; conditions: CypD R124A mutant; read-out: IC50^CypDR124A
T3 construct: made in house; host or cells: E. coli BL21(DE3)
T3 sequence (P30405 45-207 R124A): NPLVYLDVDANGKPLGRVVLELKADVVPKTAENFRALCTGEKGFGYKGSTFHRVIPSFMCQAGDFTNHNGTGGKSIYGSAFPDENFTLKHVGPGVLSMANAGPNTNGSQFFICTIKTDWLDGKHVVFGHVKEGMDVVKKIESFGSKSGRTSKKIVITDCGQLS
Description: as §1

CypD K118E/R124A = target: T4, CypD K118E/R124A (Homo sapiens, UniProt P30405, K118E/R124A); experiment: Chymotrypsin coupled prolyl-isomerase assay; format: biochemical
T4 construct: made in house; host or cells: E. coli BL21(DE3)
T4 sequence (P30405 45-207 K118E/R124A): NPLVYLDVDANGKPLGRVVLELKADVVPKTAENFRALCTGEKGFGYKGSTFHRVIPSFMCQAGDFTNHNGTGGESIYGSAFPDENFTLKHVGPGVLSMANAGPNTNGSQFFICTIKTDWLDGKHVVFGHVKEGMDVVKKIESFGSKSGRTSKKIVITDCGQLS
Description: as §1

CypD K118E = target: T5, CypD K118E (Homo sapiens, UniProt P30405, K118E); experiment: Chymotrypsin coupled prolyl-isomerase assay; format: biochemical; conditions: CypD K118E mutant; read-out: IC50^CypDK118E
T5 construct: made in house; host or cells: E. coli BL21(DE3)
T5 sequence (P30405 45-207 K118E): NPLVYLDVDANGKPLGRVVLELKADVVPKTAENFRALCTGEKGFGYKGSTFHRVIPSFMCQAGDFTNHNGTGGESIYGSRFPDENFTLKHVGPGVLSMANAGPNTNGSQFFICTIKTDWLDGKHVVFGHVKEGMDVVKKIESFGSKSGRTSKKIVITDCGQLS
Description: as §1

CypD [6] = target: T6, CypD (Homo sapiens, UniProt P30405); experiment: Chymotrypsin coupled prolyl-isomerase assay; format: biochemical
T6 construct: PPIF (UniProtKB Entry P30405: res 45-207); made in house; host or cells: E. coli BL21(DE3)
T6 sequence (P30405 45-207): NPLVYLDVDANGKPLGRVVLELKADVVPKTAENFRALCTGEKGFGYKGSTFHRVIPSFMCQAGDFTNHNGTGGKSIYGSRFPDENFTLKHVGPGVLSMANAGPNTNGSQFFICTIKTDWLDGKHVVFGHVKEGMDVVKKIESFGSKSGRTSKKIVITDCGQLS
Description: as §1

CypD [7] = experiment: Chymotrypsin coupled prolyl-isomerase assay; format: biochemical, human; conditions: CypD mutants K118E and R124A
Description: as §1

cyclophilins = experiment: Prolyl-isomerase inhibition screen on cyclophilins and cyclophilin mutants; format: biochemical, human
Description: as §1

[8] = target: T7, human carboxylesterase (CES1) (Homo sapiens, UniProt P23141); experiment: In vitro esterase activity on ester pro-drug Cy5 derivatives; format: in vitro ADME; conditions: 0.25 μM CES1, 37° C., 8 hours
T7 sequence (P23141 18-567): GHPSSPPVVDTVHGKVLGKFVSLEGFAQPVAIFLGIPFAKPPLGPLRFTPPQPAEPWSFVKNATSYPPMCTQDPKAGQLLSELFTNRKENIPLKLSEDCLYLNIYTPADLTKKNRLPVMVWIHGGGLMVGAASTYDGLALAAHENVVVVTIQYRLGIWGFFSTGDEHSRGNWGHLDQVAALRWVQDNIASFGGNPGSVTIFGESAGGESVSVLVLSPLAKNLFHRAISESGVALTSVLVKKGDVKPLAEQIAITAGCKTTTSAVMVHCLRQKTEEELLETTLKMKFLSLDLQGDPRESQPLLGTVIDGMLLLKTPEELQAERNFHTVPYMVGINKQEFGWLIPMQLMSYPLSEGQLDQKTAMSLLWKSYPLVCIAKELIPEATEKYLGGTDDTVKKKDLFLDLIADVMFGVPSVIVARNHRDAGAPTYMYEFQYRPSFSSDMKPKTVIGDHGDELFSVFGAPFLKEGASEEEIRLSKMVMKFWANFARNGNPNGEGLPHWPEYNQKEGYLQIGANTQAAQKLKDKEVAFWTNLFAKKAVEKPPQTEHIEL
Description: In vitro esterase activity on ester pro-drug Cy5 derivatives of CypD inhibitors. Into PCR tubes, ester compound (6 μM) and either buffer only, CES1 (0.25 μM), or CES2 (0.25 μM) was diluted in 100 mM Tris-HCl buffer, pH 7.4, with a final DMSO concentration of 1%. Samples were maintained on a PCR block at 37° C. for 8 hours. After incubation, samples were diluted with 20 μL acetonitrile and analyzed by LC-MS at Harvard's Center for Mass Spectroscopy. Di-ester, mono-ester, and di-acid abundances were quantified by total ion count of the primary isotope, and the three compounds were summed and each one expressed as a fraction of the total sum.

HeLa cells = experiment: Fluorescence microscopy on HeLa cells; format: cell-based, human; conditions: Cy5 labeled compound 6 μM
Description: Fluorescence microscopy on Hela cells. Into 96 well black, clear bottom TC treated plates, cells were seeded in Dulbecco's Modified Eagle Medium (DMEM) supplemented with 10% fetal bovine serum 24 hours prior at a density where wells were ˜80% confluent at time of experiment. Media was removed and cells were then stained with 50 μL of mixture containing Cy5 labeled compound (6 μM) in Kreb's ringer solution HEPES buffered pH 7.2 (KRB), for 1 hour at 37° C. Then, 50 μL Hoechst 33342 (8 μM) and Mitotracker Green FM (0.1 μM) in KRB was added directly to wells containing cells and incubated for 15 minutes at 37° C. Media was removed and cells were washed two times with 100 μL KRB. Cells were then kept adherent to the wells in 100 μL KRB for imaging. Fluorescence microscopy was conducted on an Opera Phenix Plus High-Content Screening System, using Alexa 488, Alexa 647, and Hoescht 33342 channels. Images were analyzed using Harmony 4.9.

**Q.** With NC(=O)[C@@H]1CCNC(=O)/C=C/C(=O)N2CCC[C@](Cc3ccccc3)(C2)C(=O)N[C@@H](Cc2ccc(-c3ccc(C=O)c(B(O)O)c3)cc2)C(=O)NCc2ccccc2CC(=O)N1 [Compound C3A] as the compound, how does the “mass shift of covalent adduct with CypE” value (CypE [1]) read?
**A.** 806 Da and 779 Da and 807 Da

**Q.** And the “CypE potency and selectivity in prolyl isomerase assay (in words)” value (CypE [2])?
**A.** good selectivity and potency for CypE

**Q.** And the “IC50 more potent for CypE than for the other ten cyclophilins screened” value (CypE [2])?
**A.** 30-750 fold

**Q.** What about the “higher CypE inhibition potency of C3A over C5A” value (CypE [2]) of the same compound?
**A.** 75 fold

**Q.** And the “selectivity for CypE over CypA” value (CypE [2])?
**A.** > 100 fold

**Q.** What about the IC50 (CypE [2]; wild-type CypE, read-out: IC50 against CypE prolyl isomerase activity) of the same compound?
**A.** 13 nM

**Q.** And the “inhibition of CypE K217A compared to wild-type (in words)” value (CypE K217A [3])?
**A.** Loss of C3A inhibition potency

**Q.** What about the “less potent at inhibiting K217A prolyl isomerase activity compared to wild-type CypE” value (CypE K217A [3]) of the same compound?
**A.** 150 fold

**Q.** And the IC50 (CypE K217A [3]; CypE K217A mutant, read-out: IC^CypEK217A50)?
**A.** 2000 nM

**Q.** What about the Ki (CypE [4]; 0.5 nM A26-Fl, wild-type CypE, read-out: Ki, inhibition of A26-Fl binding to CypE) of the same compound?
**A.** 72 nM

**Q.** And the “more potency for CypE than for other tested cyclophilins” value (CypE [4]; FP competition with A26-Fl, lysine-containing cyclophilins)?
**A.** > 10 fold

**Q.** What about the “CypE binding in FP competition (in words)” value (CypE [4]; compared to C3A) of the same compound?
**A.** selectivity for CypE

**Q.** What about the “less potent at competing A26-Fl off of CypE K217A compared to wild-type CypE” value (CypE K217A [5]) of the same compound?
**A.** 40 fold

**Q.** And the Ki (CypE K217A [5]; 0.5 nM A26-Fl, CypE K217A, read-out: K^CypEK217Ai)?
**A.** 3100 nM

**Q.** What about the “binding to CypE K217A compared to wild-type (in words)” value (CypE K217A [5]; FP competition with 0.5 nM A26-Fl) of the same compound?
**A.** significantly attenuated binding

**Q.** For NCCCc1ccc(-c2ccc(C[C@@H]3NC(=O)[C@]4(Cc5ccccc5)CCCN(C4)C(=O)/C=C/C(=O)NCC[C@@H](C(=O)NCCOCCN)NC(=O)Cc4ccccc4CNC3=O)cc2)cc1 [Compound B32], which IC50 (CypD R124A) is on record?
**A.** 700 nM

**Q.** And the “preference for CypD K118E/R124A over the nearest cyclophilin, PPWD1” value (CypD K118E/R124A)?
**A.** at least 13 fold

**Q.** What about the “improvement compared to wild-type CypD” value (CypD K118E/R124A; CypD K118E/R124A) of the same compound?
**A.** 100 fold

**Q.** What about the IC50 (CypD K118E/R124A; CypD double mutant, read-out: IC50^CypDK11E/R124A) of the same compound?
**A.** 60 nM

**Q.** What about the IC50 (CypD K118E) of the same compound?
**A.** 1100 nM

**Q.** And the “reduction in CypD potency” value (CypD [6]; on inserting an amine with a net positive charge)?
**A.** > 1,000 fold

**Q.** And the IC50 (CypD [6]; wild-type CypD)?
**A.** 6000 nM

**Q.** What about the “inhibition potency improvement compared to wild-type CypD” value (CypD [7]) of the same compound?
**A.** 5- to 6 fold

**Q.** And the “inhibition of cyclophilins tested (in words)” value (cyclophilins)?
**A.** overall poor potency for each cyclophilin

**Q.** CCOC(=O)CC(CC(=O)OCC)c1ccc(-c2ccc(C[C@H]3NC(=O)[C@@]4(Cc5ccccc5)CCCN(C4)C(=O)/C=C/C(=O)NCC[C@H](C(=O)NCCNC(=O)CCCCCN4\C(=C/C=C/C=C/C5=[N+](C)c6ccccc6C5(C)C)C(C)(C)c5ccccc54)NC(=O)Cc4ccccc4CNC3=O)cc2)cc1 [*B53-Et-Cy5] was tested. Which “hydrolysis of ester prodrug by CES1” value [8] did it give?
**A.** hydrolyzed to their active dicarboxylate forms

**Q.** What about the “CypD prolyl-isomerase inhibition (in words)” value (CypD [6]) of the same compound?
**A.** did not potently inhibit

**Q.** And the “mitochondrial localization (overlap with Mitotracker Green)” value (HeLa cells)?
**A.** good mitochondrial localization

**Q.** And the “plasma membrane / mammalian cell permeability” value (HeLa cells)?
**A.** Strong mammalian cell permeability and mitochondrial localization
